Data reported in patent publication US12351648B2, “Methods of inhibiting MASP-2 for the treatment and/or prevention of coronavirus-induced acute respiratory distress syndrome” (priority 2020, dated 2025).
Like-named read-outs stand apart in the source and are kept apart here. Non-standard residues stand in square brackets, D forms with d. Residues, ends and D or L forms follow the SMILES beside them. *: point of attachment. dChg = N[C@@H](C(=O)O)C1CCCCC1; Agmatine = N=C(N)NCCCCN*; Aze = O=C(O)[C@@H]1CCN1

Tests used:
[1] = target: MASP-2 (CCP1-CCP2-SP) (Homo sapiens (Human), UniProt O00187); assay: Enzymatic assay for MASP-2 (fluorogenic substrate); format: biochemical; conditions: for MASP-2 vs. thrombin selectivity: MASP-2 inhibition versus thrombin
[2] = target: human α-thrombin (Homo sapiens (Human), UniProt P00734); assay: Enzymatic assay for thrombin (Boc-VPR-AMC); format: biochemical
[3] = tested on: lectin pathway; assay: Lectin pathway activation assay in 1% human serum (C3 deposition on mannan, ELISA); format: biochemical
[4] = target: T1, mMASP-2 (Mus musculus (Mouse), UniProt Q91WP0); assay: Enzymatic assay for mMASP-2 (Ki); format: biochemical
[5] = target: T1, mMASP-2; assay: Enzymatic assay for mMASP-2 (Ki); format: biochemical; remark: listed apart in the source
[6] = tested on: COVID-19 patients; conditions: cited from earlier work; for 28-day mortality: […] with usual care
[7] = Thrombin Ki, human α-thrombin, Boc-VPR-AMC
[8] = human α-thrombin, Boc-VPR-AMC, read-out: Thrombin Ki
[9] = oxygen support without invasive mechanical ventilation

T1 sequence (Q91WP0 20-685): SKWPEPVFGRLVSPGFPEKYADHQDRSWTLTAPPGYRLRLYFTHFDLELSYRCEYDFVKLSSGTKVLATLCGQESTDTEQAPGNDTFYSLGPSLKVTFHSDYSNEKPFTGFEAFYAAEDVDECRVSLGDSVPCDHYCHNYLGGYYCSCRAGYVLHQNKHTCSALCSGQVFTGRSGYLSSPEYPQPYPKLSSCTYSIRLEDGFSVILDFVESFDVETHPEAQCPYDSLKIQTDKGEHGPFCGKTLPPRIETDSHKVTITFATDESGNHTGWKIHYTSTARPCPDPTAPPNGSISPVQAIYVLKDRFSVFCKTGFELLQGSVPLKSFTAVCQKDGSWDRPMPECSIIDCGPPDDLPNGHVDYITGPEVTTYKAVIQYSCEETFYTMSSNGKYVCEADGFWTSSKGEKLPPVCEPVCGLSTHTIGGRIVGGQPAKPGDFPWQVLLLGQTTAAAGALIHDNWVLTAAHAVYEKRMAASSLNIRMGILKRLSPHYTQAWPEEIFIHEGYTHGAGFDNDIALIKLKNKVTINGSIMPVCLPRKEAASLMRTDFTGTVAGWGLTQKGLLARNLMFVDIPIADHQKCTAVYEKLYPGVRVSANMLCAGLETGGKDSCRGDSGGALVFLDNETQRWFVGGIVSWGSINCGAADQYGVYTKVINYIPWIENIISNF
Sequence of MASP-2 (CCP1-CCP2-SP) (O00187 287-686): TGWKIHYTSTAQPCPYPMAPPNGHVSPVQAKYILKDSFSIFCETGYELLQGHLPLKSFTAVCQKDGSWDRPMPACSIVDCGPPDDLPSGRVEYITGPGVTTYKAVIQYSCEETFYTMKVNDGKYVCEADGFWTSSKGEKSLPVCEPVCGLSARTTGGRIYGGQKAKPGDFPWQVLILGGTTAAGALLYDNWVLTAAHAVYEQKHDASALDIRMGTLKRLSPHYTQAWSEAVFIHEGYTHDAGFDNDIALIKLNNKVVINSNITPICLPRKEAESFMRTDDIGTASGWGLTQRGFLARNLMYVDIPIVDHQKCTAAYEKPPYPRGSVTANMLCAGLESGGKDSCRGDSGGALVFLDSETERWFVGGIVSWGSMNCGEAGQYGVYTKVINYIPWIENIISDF

In the case of `N=C(N)NCCCCNC(=O)[C@@H]1CCN1C(=O)[C@H](N)C1CCCCC1` [Compound 1006] (H-[dChg]-[Aze]-Agmatine), the “MASP-2 vs. thrombin selectivity” value [1] is reported as “— (less than 1.0-fold)”.

With `C[C@H](NC(=O)C1CC(c2ccccc2)CCN1)C(=O)NCc1ccc(N)nc1` (stereo partly drawn) [Compound 1025] the Ki [2, 7] was > 25 µM and the IC50 ([3]; read-out: Lectin Pathway IC50) was 500 to 5000 nM.

With `N=C(N)c1ccc(CNC(=O)[C@@H]2CCCN2C(=O)[C@H](N)C2CCCCC2)cc1` [Compound 1027] the “MASP-2 vs. thrombin selectivity” value [1] was “— (less than 1.0-fold)”.

With `C[C@H](NC(=O)[C@H](N)CCc1ccccc1)C(=O)NCc1ccc2nc(N)[nH]c2c1` [Compound 1040] the Ki [2, 7] was > 25 µM, the IC50 ([3]; read-out: Lectin Pathway IC50) was 500 to 5000 nM and the Ki [4] was < 500 nM. The “MASP-2 vs. thrombin selectivity” value [1] was “**** (>100-fold)” and the Ki ([1]; read-out: MASP-2 Ki) was < 0.5 µM.

With `C[C@H](NC(=O)[C@H](N)CCc1ccc(F)cc1)C(=O)NCc1ccc(C(=N)N)cc1` [Compound 1047] the Ki [2, 8] was < 2.5 µM.

In the case of `C[C@H](NC(=O)C1CC(c2ccccc2)CCN1)C(=O)NCc1ccc(C(=N)N)cc1` (stereo partly drawn) [Compound 1065], the IC50 ([3]; read-out: Lectin Pathway IC50) is reported as < 50 nM and the Ki [4] is reported as < 500 nM.

For `C[C@H](NC(=O)[C@@H](CCc1ccccc1)NC1CCCCC1)C(=O)NCc1ccc(C(=N)N)cc1` [Compound 1130], the “MASP-2 vs. thrombin selectivity” value [1] was “— (less than 1.0-fold)”.

In the case of `C[C@H](NC(=O)[C@@H](CCc1ccccc1)NCc1ccc(O)cc1)C(=O)NCc1ccc(C(=N)N)cc1` [Compound 1140], the “MASP-2 vs. thrombin selectivity” value [1] is reported as “— (less than 1.0-fold)”.

In the case of `C[C@H](NC(=O)[C@@H](CCc1ccccc1)NCc1ccc(F)cc1)C(=O)NCc1ccc(C(=N)N)cc1` [Compound 1141], the Ki [2, 8] is reported as < 0.5 µM, the “MASP-2 vs. thrombin selectivity” value [1] is reported as “— (less than 1.0-fold)” and the Ki ([1]; read-out: MASP-2 Ki) is reported as < 0.5 µM.

For `COC(=O)CCCCCN[C@H](CCc1ccccc1)C(=O)N[C@@H](C)C(=O)NCc1ccc(C(=N)N)cc1` [Compound 1142], the Ki [2, 8] was < 0.5 µM, the “MASP-2 vs. thrombin selectivity” value [1] was “* (1.0 to 5.0-fold)” and the Ki ([1]; read-out: MASP-2 Ki) was < 0.5 µM.

In the case of `C[C@H](NC(=O)[C@@H](CCc1ccccc1)NCc1cc2ccccc2[nH]1)C(=O)NCc1ccc(C(=N)N)cc1` [Compound 1143], the Ki [2, 8] is reported as < 0.5 µM, the Ki [4] is reported as < 500 nM and the “MASP-2 vs. thrombin selectivity” value [1] is reported as “— (less than 1.0-fold)”. For the same molecule, the Ki ([1]; read-out: MASP-2 Ki) was < 0.5 µM.

For `C[C@H](NC(=O)[C@H]1CCc2ccccc2N1)C(=O)NCc1ccc(C(=N)N)cc1` [Compound 1215], the Ki [4] was < 25000 nM.

With `C[C@H](NC(=O)[C@H](N)CCc1ccccc1)C(=O)NCc1ccc(C(=N)N)cc1` [Compound 1218] the “MASP-2 vs. thrombin selectivity” value [1] was “— (less than 1.0-fold)”.

With `CCOC(=O)COc1ccc(Cl)cc1CNC(=O)[C@H](C)NC(=O)[C@H](N)CCc1ccccc1` [Compound 1229] the Ki [2, 8] was < 10 µM.

For `CCCCOC(=O)NC(=N)c1ccc(CNC(=O)[C@H](C)NC(=O)[C@H]2C[C@H](c3ccccc3)CN2)cc1` [Compound 1260], the Ki ([2]; Thrombin Ki (μM)) was > 25 µM and the Ki ([1]; MASP-2 Ki (μM)) was 2.5 to 10 µM.

For `CC[C@H](NC(=O)[C@H](N)CCc1ccccc1)C(=O)NCc1ccc(C(=N)N)cc1` [Compound 1289], the “MASP-2 vs. thrombin selectivity” value [1] was “— (<1.0-fold)”.

In the case of `C[C@H](NC(=O)[C@H](N)CCc1ccccc1)C(=O)NCc1cc(Cl)ccc1-n1cnnn1` [Compound 1325], the “MASP-2 vs. thrombin selectivity” value [1] is reported as “— (<1.0-fold)”.

For `C[C@H](NC(=O)[C@H]1C[C@H](Cc2ccccc2)CN1)C(=O)NCc1cnc2[nH]cc(Cl)c2c1` [Compound 1334], the “MASP-2 vs. thrombin selectivity” value [1] was “— (<1.0-fold)”.

In the case of `Cc1nc(N)ccc1CNC(=O)[C@H](C)NC(=O)[C@H]1C[C@H](Cc2ccc3ccccc3c2)CN1` [Compound 1338], the “MASP-2 vs. thrombin selectivity” value [1] is reported as “*** (≥25 to <100-fold)”.

With `Cc1nc(N)ccc1CNC(=O)[C@@H](C)NC(=O)[C@H]1C[C@H](c2cccc(-c3ccccc3)c2)CN1` [Compound 1359] the Ki ([2]; Thrombin Ki (μM)) was > 25 µM and the Ki [5] was 10000 to 25000 nM.

For `Cc1nc(N)ccc1CNC(=O)[C@H](C)NC(=O)[C@H]1C[C@H](c2cccc(-c3ccccc3)c2)CN1` [Compound 1360], the Ki ([2]; Thrombin Ki (μM)) was > 25 µM, the IC50 ([3]; read-out: Lectin Pathway IC50) was 50 to 500 nM and the Ki [5] was < 500 nM.

For `Cc1nc(N)ccc1CNC(=O)[C@H](C)NC(=O)[C@H]1C[C@@H](c2ccccc2)CCN1CC(=O)O` [Compound 1398], the Ki [5] was < 500 nM.

For `C[C@H](NC(=O)[C@H]1C[C@H](Cc2cccc3ccccc23)CN1)C(=O)NCc1cc(Cl)ccc1-n1cnnn1` [Compound 1414], the “MASP-2 vs. thrombin selectivity” value [1] was “— (<1.0-fold)”.

In the case of `Cc1nc(N)ccc1CNC(=O)[C@H](C)NC(=O)[C@H]1CC(Cc2ccc(F)cc2)(Cc2ccc(F)cc2)CN1` [Compound 1480], the Ki [5] is reported as < 500 nM.

With `N=C(N)c1ccc2[nH]c(Cc3nc4ccccc4[nH]3)nc2c1` [Compound 2015] the Ki ([1]; MASP-2 Ki (μM), −Zn) was < 10 µM.

Work on `N=C(N)c1ccc(CNC(=O)Cn2c(=O)n(Cc3ccccc3)c(=O)c3ccc(C(=O)NC4CCCCC4)cc32)cc1` [Compound 2021] yielded an IC50 ([3]; read-out: Lectin Ki (Lectin Pathway Inhibition, IC50)) of 5000 to 50000 nM.

In the case of `C[C@@H]1C[C@H]2[C@@H]3CCC4=CC(=O)C=C[C@]4(C)[C@@]3(F)[C@@H](O)C[C@]2(C)[C@@]1(O)C(=O)CO` [dexamethasone], the 28-day mortality ([6]; invasive mechanical ventilation) is given as 29.0%, the 28-day mortality ([6]; no respiratory support at randomization) is given as 17.0% and the 28-day mortality [6, 9] is given as 21.5%. The “Reduction of 28-day mortality” value [6, 9] was 14% and the “Reduction of 28-day mortality” value ([6]; patients on invasive mechanical ventilation) was 28.7%.
